# Measured values reported in patent US10189786B2, “Antibacterial compounds” (Duke University, priority 2013, dated 2019).
# Experiments:
# Type in all cases: cell-based
# [1] = test system: E. coli W3110; experiment: microbe, parasite or virus in culture; details: wild-type E. coli W3110, 22 hours at 37° C., MTT; for MIC: Escherichia coli, W3110, 22 h
# [2] = test system: P. aeruginosa PAO1; experiment: MIC assay, P. aeruginosa PAO1
# [3] = test system: N. gonorrhoeae F89 (high-level cefixime and ceftriaxone resistance); experiment: Disk diffusion assay, N. gonorrhoeae F89; details: disc 6 mm; for zone of inhibition at 0.2 µg/disc / zone of inhibition at 2 µg/disc / zone of inhibition at 20 µg/disc: Neisseria gonorrhoeae, read-out: diameter of the growth inhibition, F89
# Experimental: (§1) An assay was performed on two strains of Acinetobacter Baumannii: antibiotic susceptible strain (Sus. A.b. Isolate), and multidrug-resistant strains (MDR A.b. Isolate). […] Activity is measured as the diameter (in mm) of the growth inhibition.
# [4] = test system: N. gonorrhoeae FA19 (a drug-sensitive strain); experiment: Disk diffusion assay, N. gonorrhoeae FA19; details: disc 6 mm; for zone of inhibition at 0.2 µg/disc / zone of inhibition at 2 µg/disc / zone of inhibition at 20 µg/disc: Neisseria gonorrhoeae, read-out: diameter of the growth inhibition, FA19
# Experimental: as §1
# [5] = test system: N. gonorrhoeae 35/02 (drug-resistant strain); experiment: Disk diffusion assay, N. gonorrhoeae 35/02; details: disc 6 mm; for zone of inhibition at 0.2 µg/disc / zone of inhibition at 2 µg/disc / zone of inhibition at 20 µg/disc: Neisseria gonorrhoeae, read-out: diameter of the growth inhibition, 35/02
# Experimental: as §1
# [6] = test system: N. gonorrhoeae H041; experiment: Disk diffusion assay, N. gonorrhoeae H041; details: disc 6 mm; for zone of inhibition at 0.2 µg/disc / zone of inhibition at 2 µg/disc / zone of inhibition at 20 µg/disc: Neisseria gonorrhoeae, read-out: diameter of the growth inhibition, H041; for zone of inhibition at 0.2 µg/disc: H041, 0.2 μg per disc; for zone of inhibition at 2 µg/disc: H041, 2.0 μg per disc; for zone of inhibition at 20 µg/disc: H041, 20 μg per disc
# Experimental: as §1
# [7] = test system: E. coli W3110PA; experiment: microbe, parasite or virus in culture; details: Escherichia coli, W3110PA, E. coli with native lpxC replaced by that of P. aeruginosa
SMILES,MIC [1] [µg/mL],zone of inhibition at 0.2 µg/disc ([3]; 0.2 μg per disc) [mm],zone of inhibition at 2 µg/disc ([3]; 2.0 μg per disc) [mm],zone of inhibition at 20 µg/disc ([3]; 20 μg per disc) [mm],zone of inhibition at 0.2 µg/disc ([4]; 0.2 μg per disc) [mm],zone of inhibition at 2 µg/disc ([4]; 2.0 μg per disc) [mm],zone of inhibition at 20 µg/disc ([4]; 20 μg per disc) [mm],zone of inhibition at 0.2 µg/disc ([5]; 0.2 μg per disc) [mm],zone of inhibition at 2 µg/disc ([5]; 2.0 μg per disc) [mm],zone of inhibition at 20 µg/disc ([5]; 20 μg per disc) [mm],zone of inhibition at 0.2 µg/disc [6] [mm],zone of inhibition at 2 µg/disc [6] [mm],zone of inhibition at 20 µg/disc [6] [mm],other results
CC(NCCc1ccc(-c2ccccc2)cc1)(C(=O)NO)C(C)(O)C(F)F.Cl (stereo not shown) [Example 136],,,,,,,,,,,,,,MIC E. coli W3110 [1]: >40 µg/mL; MIC P. aeruginosa PAO1 [2]: >40 µg/mL
CC(O)(CF)C(C)(NCCCc1ccc(-c2ccccc2)cc1)C(=O)NO.Cl (stereo not shown) [Example 139],,,,,,,,,,,,,,"MIC E. coli W3110 [1]: 50 µg/mL; diameter of the growth inhibition, F89 ([3]; 0.2 μg per disc): 11 mm; diameter of the growth inhibition, F89 ([3]; 2.0 μg per disc): 20 mm; diameter of the growth inhibition, F89 ([3]; 20 μg per disc): 28 mm; diameter of the growth inhibition, FA19 ([4]; 0.2 μg per disc): 11 mm; diameter of the growth inhibition, FA19 ([4]; 2.0 μg per disc): 20 mm; diameter of the growth inhibition, FA19 ([4]; 20 μg per disc): 24 mm; diameter of the growth inhibition, 35/02 ([5]; 0.2 μg per disc): 7 mm; diameter of the growth inhibition, 35/02 ([5]; 2.0 μg per disc): 15 mm; diameter of the growth inhibition, 35/02 ([5]; 20 μg per disc): 22 mm; diameter of the growth inhibition, H041 ([6]; 0.2 μg per disc): 7 mm; diameter of the growth inhibition, H041 ([6]; 2.0 μg per disc): 14 mm; diameter of the growth inhibition, H041 ([6]; 20 μg per disc): 21 mm"
C[C@@](O)(C(F)F)[C@H](NCc1ccc(-c2ccccc2)cc1O)C(=O)NO [Example 141],50,10,22,30,12,21,28,7,16,25,0,15,22,
C[C@@](O)(C(F)F)[C@H](NCCCc1ccc(-c2ccc(CN3CCOCC3)cc2)cc1)C(=O)NO [Example 138],3,,,,,,,,,,,,,
C[C@@](O)(C(F)F)[C@H](NCc1ccc2cc(-c3ccccc3)ccc2c1)C(=O)NO [Example 149],,19,24,30,15,22,26,11,22,25,10,24,27,
"CC(NCCc1ccc(-c2ccccc2)cc1)(C(=O)NO)C(C)(O)C(F)F (stereo not shown) [Example 12, 2-(2-(biphenyl-4-yl)ethylamino)-4,4-difluoro-N,3-dihydroxy-2,3-dimethylbutanamide]",> 40,,,,,< 19,,,,,,,,"MIC ([2]; Pseudomonas aeruginosa, PAO1, P. aeruginosa PAO1): > 40 µg/mL"
CC(NCCCc1ccc(-c2ccccc2)cc1)(C(=O)NO)C(O)(CF)CF (stereo not shown) [Example 148],,13,19,27,12,19,27,0,17,24,9,15,24,
"C[C@@](O)(C(F)F)[C@H](NCc1ccc(-c2cccs2)s1)C(=O)NO [Example 8, (2S,3S)-2-(2,2′-bithiophen-5-ylmethylamino)-4,4-difluoro-N,3-dihydroxy-3-methylbutanamide]",25,,,,,19,,,,,,,,MIC [7]: 25 µg/mL
C[C@@](O)(C(F)F)[C@H](NCc1ccc(-c2ccc(OCCN3CCOCC3)cc2)cc1)C(=O)NO [Example 145],25,0,7,21,0,0,14,0,0,12,0,7,11,
"CC(NCCCc1ccc(-c2ccccc2)cc1)(C(=O)NO)C(C)(O)C(F)F.Cl (single isomer, unassigned) [Example 134]",,,,,,,,,,,,,,"MIC E. coli W3110 [1]: 1.25 µg/mL; diameter of the growth inhibition, F89 ([3]; 0.2 μg per disc): 21 mm; diameter of the growth inhibition, F89 ([3]; 2.0 μg per disc): 28 mm; diameter of the growth inhibition, F89 ([3]; 20 μg per disc): 36 mm; diameter of the growth inhibition, FA19 ([4]; 0.2 μg per disc): 14 mm; diameter of the growth inhibition, FA19 ([4]; 2.0 μg per disc): 24 mm; diameter of the growth inhibition, FA19 ([4]; 20 μg per disc): 30 mm; MIC P. aeruginosa PAO1 [2]: 2.5 µg/mL; diameter of the growth inhibition, 35/02 ([5]; 0.2 μg per disc): 12 mm; diameter of the growth inhibition, 35/02 ([5]; 2.0 μg per disc): 23 mm; diameter of the growth inhibition, 35/02 ([5]; 20 μg per disc): 28 mm; diameter of the growth inhibition, H041 ([6]; 0.2 μg per disc): 14 mm; diameter of the growth inhibition, H041 ([6]; 2.0 μg per disc): 21 mm; diameter of the growth inhibition, H041 ([6]; 20 μg per disc): 26 mm"
C[C@@](O)(C(F)F)[C@H](NC/C=C/c1ccc(-c2ccccc2)cc1)C(=O)NO [Example 147],,28,33,38,22,28,32,17,28,34,14,30,35,
COc1ccc(-c2ccn(CCCNC(C)(C(=O)NO)C(C)(O)CF)c(=O)c2)cc1 (stereo not shown) [Example 140],100,,,,,13,22,,,,,,,
COc1ccc(-c2ccc(CCCN[C@H](C(=O)NO)[C@](C)(O)C(F)F)cc2)cc1 [Example 137],12,,,,,,,,,,,,,
COc1cc(-c2ccccc2)ccc1CN[C@H](C(=O)NO)[C@](C)(O)C(F)F [Example 146],,0,11,27,0,10,25,0,0,16,0,8,19,
COc1ccc(-c2ccc(CN[C@H](C(=O)NO)[C@](C)(O)C(F)F)cc2)cc1 [Example 142],100,0,16,24,0,16,21,0,11,20,0,8,17,
"CC(NCCCc1ccc(-c2ccccc2)cc1)(C(=O)NO)C(C)(O)C(F)F.Cl (single isomer, unassigned) [Example 135]",,,,,,,,,,,,,,"MIC E. coli W3110 [1]: 10 µg/mL; diameter of the growth inhibition, F89 ([3]; 0.2 μg per disc): 15 mm; diameter of the growth inhibition, F89 ([3]; 2.0 μg per disc): 27 mm; diameter of the growth inhibition, F89 ([3]; 20 μg per disc): 30 mm; diameter of the growth inhibition, FA19 ([4]; 0.2 μg per disc): 8 mm; diameter of the growth inhibition, FA19 ([4]; 2.0 μg per disc): 19 mm; diameter of the growth inhibition, FA19 ([4]; 20 μg per disc): 26 mm; MIC P. aeruginosa PAO1 [2]: 20 µg/mL; diameter of the growth inhibition, 35/02 ([5]; 0.2 μg per disc): 8 mm; diameter of the growth inhibition, 35/02 ([5]; 2.0 μg per disc): 14 mm; diameter of the growth inhibition, 35/02 ([5]; 20 μg per disc): 19 mm; diameter of the growth inhibition, H041 ([6]; 0.2 μg per disc): 8 mm; diameter of the growth inhibition, H041 ([6]; 2.0 μg per disc): 14 mm; diameter of the growth inhibition, H041 ([6]; 20 μg per disc): 23 mm"
CN1CCN(Cc2ccc(-c3ccc(CCCN[C@H](C(=O)NO)[C@](C)(O)C(F)F)cc3)cc2)CC1 [Example 144],50,0,0,0,0,0,0,0,0,0,0,0,0,
"Cc1ccc(-c2ccc(CN[C@H](C(=O)NO)[C@](C)(O)C(F)F)s2)s1 [Example 7, (2S,3S)-4,4-difluoro-N,3-dihydroxy-3-methyl-2-((5′-methyl-2,2′-bithiophen-5-yl)methylamino)butanamide]",50,,,,,21,,,,,,,,MIC [7]: 25 µg/mL
